Literature values as cited in patent US4130647A, “Methods for treating congestive heart failure and ischemic heart disease” (priority 1977, dated 1978).

Test system: patients with congestive heart failure
Details: cited from earlier work

Compound	cardiac output (when left ventricular filling pressures fall below the upper limits of normal)	left ventricular filling pressures (heart failure)	side effects (in vivo)	Pulmonary Wedge Pressure (left ventricular failure)	right atrial pressure and forearm veins (left ventricular failure)
O=[N+]([O-])OCC(CO[N+](=O)[O-])O[N+](=O)[O-] [nitroglycerin]	A similar phenomenon is observed	–	–	–	–
NNc1nncc2ccccc12 [hydralazine]	–	does not usually lower left ventricular filling pressures	serologic side effects and leading to sodium retention	only slightly reduces pulmonary wedge pressure	does not reduce right atrial pressure or dilate forearm veins
